# From patent publication US6428969B1, “Method for determining oncogenic activity of a substance” (Ludwig Institute for Cancer Research, priority 1997, dated 2002)
# B1: IFNγ: cytokine interferonγ; human IFNγ used on human tumor cell lines (protein, UniProt P01579 24-161, looked up)
# Interferon gamma: QDPYVKEAENLKKYFNAGHSDVADNGTLFLGILKNWKEESDRKIMQSQIVSFYFKLFKNFKDDQSIQKSVETIKEDMNVKFFNSNKKKRDDFEKLTNYSVTDLNVQRKAIHELIQVMAELSPAAKTGKRKRSQMLFRG
# Experiments:
# IFNγR−/− mice = experiment: MCA-induced tumor formation at the injection site; type: in vivo, mouse
# From the text: (§1) Initially, tumor formation was examined in groups of 15-20 IFNγR^−/^− mice generated as described in Example 1 and wild type inbred 129/Sv/Ev mice as controls. All animals were greater than 6 weeks old (ranging in age from about 6 to about 12 weeks). The 129/Sv/Ev background was specifically chosen for these experiments since 129/Sv/Ev mice are relatively resistant to the tumorigenic actions of MCA and the pure background of the mice insured that in vivo growth of the resulting tumors could be studied using tumor transplantation approaches. The knockout and control mice were injected subcutaneously in a single dose with 25, 100, or 400 μg of the chemical carcinogen 3-methylcholanthrene (MCA) diluted in peanut oil and monitored for tumor development at the injection site for a period of 130 days. The results are shown in FIG. 1A, which represents the percentage of mice in each group with a tumor over 5 mm as a function of the number of days after injection.
# (§2) Groups of IFNγR^−/− mice and STAT1^−/^− mice were generated as described in Examples 1 and 2 and compared to a control group of 129/Sv/Ev wild-type mice. All animals were greater than 6 weeks old (ranging in age from about 6 to about 12 weeks). Each of 20-25 animals per group, were injected subcutaneously with a single dose of MCA at 1.5, 6.25, 25, 100 or 400 μg and monitored for tumor development.
# wild type 129/Sv/Ev mice = experiment: MCA-induced tumor formation at the injection site; type: in vivo, mouse; conditions: for tumor development: Example 5
# From the text: as §1, §2
# Stat1−/− mice = experiment: MCA-induced tumor formation at the injection site; type: in vivo, mouse
# Experimental: as §2
# [1] = test system: IFNγ-responsive and IFNγ-unresponsive mice; experiment: Histologic comparison of MCA-induced tumors; type: in vivo; conditions: three mouse strains; data not shown
# Experimental: Both types of IFNγ insensitive mice developed MCA-induced tumors more frequently than wild-type mice. Tumor formation was detected in IFNγR^−/− mice treated with as little as 6.25 μg MCA.
# [2] = test system: perforin-deficient (PKO) mice; conditions: subcutaneous injection; cited from earlier work
# α chain knockout mice = conditions: mouse, in vivo; cited from earlier work
# p53−/+ mice = conditions: cited from earlier work
# A457 = experiment: MHC class I surface expression by flow cytometry; type: cell-based, human; conditions: IFNγ 1000 IRU/ml or IFNαA/D 1000 U/ml, 72 hr, mean channel shift vs untreated cells
# Experimental: (§3) To address this question IFNγ responsiveness was examined in a variety of tumor cell lines obtained from human tumor cell banks. Established cell lines were cultured in the presence of either buffer, human IFNγ (1000 IRU/ml), or human IFNαA/D (1000 U/ml) for 72 hr followed by quantitation of MHC class I surface expression by flow cytometry with the antibody W6/32 as previously described (Farrar et al., supra). W6/32 is a murine monoclonal antibody specific for a framework region of human MHC Class I and was kindly provided by Dr. Thalachallour Mohanakumar (Washington University, St. Louis, Mo.). IFNγ-dependent STAT1 activation was assessed by treating cells with either PBS or human IFNγ at 10,000 IRU/ml for 5 minutes at 37° C. followed by subjecting 5 μg of nuclear extract to EMSA using a ^32P-labeled GRR probe as described by Greenlund et al., EMBO J. 13:1591, 1994, which is incorporated herein by reference.
# (§4) The experiment was repeated with 17 human adenocarcinoma cell lines and the data are shown in Table I below, with the induction of MHC class I expression represented as the mean channel shift between IFNγ-treated cells and untreated cells. […] The CALU-5 cell line was also insensitive to IFNα. None of the cell lines examined show IFNα-specific unresponsiveness.
# A549 = experiment: MHC class I surface expression by flow cytometry; type: cell-based, human; conditions: IFNγ 1000 IRU/ml or IFNαA/D 1000 U/ml, 72 hr, mean channel shift vs untreated cells
# Experimental: as §3, §4
# CALU-3 = experiment: MHC class I surface expression by flow cytometry; type: cell-based, human; conditions: IFNγ 1000 IRU/ml or IFNαA/D 1000 U/ml, 72 hr, mean channel shift vs untreated cells
# Experimental: as §3, §4
# CALU-5 = experiment: MHC class I surface expression by flow cytometry; type: cell-based, human; conditions: for MHC Class I Enhancement (MCS): IFNγ 1000 IRU/ml or IFNαA/D 1000 U/ml, 72 hr, mean channel shift vs untreated cells
# Experimental: as §3, §4
# SK-LC-10 = experiment: MHC class I surface expression by flow cytometry; type: cell-based, human; conditions: IFNγ 1000 IRU/ml or IFNαA/D 1000 U/ml, 72 hr, mean channel shift vs untreated cells
# Experimental: as §3, §4
# SK-LC-11 = experiment: MHC class I surface expression by flow cytometry; type: cell-based, human; conditions: IFNγ 1000 IRU/ml or IFNαA/D 1000 U/ml, 72 hr, mean channel shift vs untreated cells
# Experimental: as §3, §4
# SK-LC-12 = experiment: MHC class I surface expression by flow cytometry; type: cell-based, human; conditions: IFNγ 1000 IRU/ml or IFNαA/D 1000 U/ml, 72 hr, mean channel shift vs untreated cells
# Experimental: as §3, §4
# SK-LC-15 = experiment: MHC class I surface expression by flow cytometry; type: cell-based, human; conditions: IFNγ 1000 IRU/ml or IFNαA/D 1000 U/ml, 72 hr, mean channel shift vs untreated cells
# Experimental: as §3, §4
# SK-LC-16 = experiment: MHC class I surface expression by flow cytometry; type: cell-based, human; conditions: IFNγ 1000 IRU/ml or IFNαA/D 1000 U/ml, 72 hr, mean channel shift vs untreated cells
# Experimental: as §3, §4
# SK-LC-19 = experiment: MHC class I surface expression by flow cytometry; type: cell-based, human; conditions: for MHC Class I Enhancement (MCS): SK-LC-19, IFNγ 1000 IRU/ml or IFNαA/D 1000 U/ml, 72 hr, mean channel shift vs untreated cells
# Experimental: as §3, §4
# SK-LC-1 = experiment: MHC class I surface expression by flow cytometry; type: cell-based, human; conditions: IFNγ 1000 IRU/ml or IFNαA/D 1000 U/ml, 72 hr, mean channel shift vs untreated cells
# Experimental: as §3, §4
# SK-LC-20 = experiment: MHC class I surface expression by flow cytometry; type: cell-based, human; conditions: IFNγ 1000 IRU/ml or IFNαA/D 1000 U/ml, 72 hr, mean channel shift vs untreated cells
# Experimental: as §3, §4
# SK-LC-2 = experiment: MHC class I surface expression by flow cytometry; type: cell-based, human; conditions: for MHC Class I Enhancement (MCS): IFNγ 1000 IRU/ml or IFNαA/D 1000 U/ml, 72 hr, mean channel shift vs untreated cells
# Experimental: as §3, §4
# SK-LC-4 = experiment: MHC class I surface expression by flow cytometry; type: cell-based, human; conditions: IFNγ 1000 IRU/ml or IFNαA/D 1000 U/ml, 72 hr, mean channel shift vs untreated cells
# Experimental: as §3, §4
# SK-LC-7 = experiment: MHC class I surface expression by flow cytometry; type: cell-based, human; conditions: for MHC Class I Enhancement (MCS): IFNγ 1000 IRU/ml or IFNαA/D 1000 U/ml, 72 hr, mean channel shift vs untreated cells
# Experimental: as §3, §4
# SK-LC-9 = experiment: MHC class I surface expression by flow cytometry; type: cell-based, human; conditions: IFNγ 1000 IRU/ml or IFNαA/D 1000 U/ml, 72 hr, mean channel shift vs untreated cells
# Experimental: as §3, §4
# SK-LU-1 = experiment: MHC class I surface expression by flow cytometry; type: cell-based, human; conditions: IFNγ 1000 IRU/ml or IFNαA/D 1000 U/ml, 72 hr, mean channel shift vs untreated cells
# Experimental: as §3, §4
# [3] = test system: 33 melanoma and 17 lung tumor cell lines classified as non-adenocarcinoma; experiment: Preliminary study of IFNγ sensitivity of tumor cell lines; type: cell-based, human; conditions: of each group (33 melanoma, 17 lung non-adenocarcinoma lines), data not shown
# Experimental: as §3
# RADgR.28.mgR cells = experiment: Antiproliferative or anti-metabolic effects of IFNγ in culture; type: cell-based, mouse; conditions: IFNγ alone or in combination with other cytokines, in vitro; data not shown
# From the text: Having identified the tumor cell as the major target of IFNγ's actions, experiments were designed to define the mechanism underlying the rejection process. IFNγ can induce an antiproliferative state in certain cell types.
# [4] = 400 μg MCA, single s.c. dose, at 130 days
Molecule,tumor induction (p53−/+ mice),MHC Class I Enhancement (MCS) (A457),MHC Class I Enhancement (MCS) (A549),MHC Class I Enhancement (MCS) (CALU-3),MHC Class I Enhancement (MCS) (CALU-5),MHC Class I Enhancement (MCS) (SK-LC-10),MHC Class I Enhancement (MCS) (SK-LC-11),MHC Class I Enhancement (MCS) (SK-LC-12),MHC Class I Enhancement (MCS) (SK-LC-15),MHC Class I Enhancement (MCS) (SK-LC-16),MHC Class I Enhancement (MCS) (SK-LC-19),MHC Class I Enhancement (MCS) (SK-LC-1),MHC Class I Enhancement (MCS) (SK-LC-20),MHC Class I Enhancement (MCS) (SK-LC-2),MHC Class I Enhancement (MCS) (SK-LC-4),MHC Class I Enhancement (MCS) (SK-LC-7),MHC Class I Enhancement (MCS) (SK-LC-9),MHC Class I Enhancement (MCS) (SK-LU-1),also measured
"Cc1ccc2cc3c(ccc4ccccc43)c3c2c1CC3 [MCA, 3-methylcholanthrene]",–,–,–,–,–,–,–,–,–,–,–,–,–,–,–,–,–,–,"mice forming tumors at the lower MCA dose (IFNγR−/− mice; 25 μg MCA s.c., Example 4): high percentage; percentage of mice that developed tumors (over 5 mm) (IFNγR−/− mice; [4]): 50%; time at which tumors were detected (IFNγR−/− mice; all dose groups (25, 100, 400 μg MCA s.c.)): 90 days; tumor development compared with wild-type mice (IFNγR−/− mice; all doses examined (25, 100, 400 μg)): more frequently and at earlier times; lowest MCA dose at which tumor formation was detected (IFNγR−/− mice; single s.c. dose, within 130 days, Example 5): 6.25 µg; tumor development (wild type 129/Sv/Ev mice; 25 μg MCA): not; tumor development (wild type 129/Sv/Ev mice; 400 μg MCA): developed tumors; percentage of mice in which tumors were detected (over 5 mm) (wild type 129/Sv/Ev mice; [4]): 20%; MCA dose at which tumors formed (wild type 129/Sv/Ev mice; single s.c. dose, 130 days, Example 4): ≥ 100 µg; frequency of tumors relative to IFNγR−/− mice (Stat1−/− mice; at every dose examined): approximately two times; lowest MCA dose at which tumors could be detected (Stat1−/− mice; single s.c. dose, within 130 days): 1.6 μg MCA/mouse; histology of induced tumors [1]: histologically indistinguishable fibrosarcomas; sarcomas at the injection site compared with normal MCA-treated mice [2]: higher frequency and with accelerated onset of tumor; tumors in α chain knockout mice compared with wild-type controls (α chain knockout mice): more tumors"
"C1CC2OC2CC1C1CO1 (stereo not drawn) [VCD, 4-vinyl-1-cyclohexene diepoxide]",tumors were induced,–,–,–,–,–,–,–,–,–,–,–,–,–,–,–,–,–,–
COc1ccc(C)cc1N [p-cresidine],tumors were induced,–,–,–,–,–,–,–,–,–,–,–,–,–,–,–,–,–,–
IFNα,–,27.1,21.8,17.0,0.0,22.6,13.8,12.7,79.6,10.9,25.1,18.7,25.9,16.7,36.7,37.2,53.4,16.7,sensitivity to IFNα (CALU-5): insensitive
B1,–,27.7,36.9,30.4,0.0,31.7,25.3,30.4,91.3,27.0,0.0,16.9,25.6,0.0,59.5,0.0,49.3,47.1,responsiveness to IFNγ (initiation of IFNγ-signaling or IFNγ dependent biologic response) (CALU-5): totally unresponsive; responsiveness to IFNγ (initiation of IFNγ-signaling or IFNγ dependent biologic response) (SK-LC-19; SL-LC-19 as printed): totally unresponsive; responsiveness to IFNγ (initiation of IFNγ-signaling or IFNγ dependent biologic response) (SK-LC-2): totally unresponsive; responsiveness to IFNγ (initiation of IFNγ-signaling or IFNγ dependent biologic response) (SK-LC-7): totally unresponsive; share of cell lines showing a quantitative reduction in IFNγ sensitivity [3]: approximately 33%; antiproliferative or anti-metabolic effects (RADgR.28.mgR cells): no antiproliferative or anti-metabolic effects
